{"source": "patent US11161831B2", "about": "“Methods and compositions for treatment of muscle wasting, muscle weakness, and/or cachexia” (Baylor College of Medicine, priority 2013, dated 2021)", "tested_on": "mice with CKD", "assay": "CKD-induced muscle wasting in mice (subtotal nephrectomy)", "format": "in vivo", "protocol": "FIGS. 21A-21G provides a small molecule inhibitor of Stat3 activation, C188-9, that blocks CKD-induced muscle wasting. FIG. 21A. Sham or CKD mice were treated with C188-9 or D5W (diluent) for 14 days. Representative western blots of p-Stat3, Stat3 and GAPDH from lysates of gastrocnemius muscles are shown (n=8 mice/group). FIG. 21B. Differences in body weights of pair-fed, sham or CKD mice treated with C188-9 or D5W at baseline and after 7 or 14 days of treatment (*p<0.05 vs. D5W sham). FIGS. 21C & 21D. Average weights of mixed fiber gastrocnemius and tibialis anterior (TA) muscles from both legs (n=7 mice/group). FIG. 21E. Cryosections of TA muscles were immunostained with anti-laminin to identify the muscle basement membrane. The myofiber areas were measured and the myofiber size distribution was calculated from the areas of ˜500 myofibers assessed by an observer blinded to treatment group (n=4 pairs of mice). FIG. 21F. Muscle force of each mouse studied in FIG. 3C was measured on four consecutive days (Experimental Procedures; n=7 mice/group). G&H. At 2 weeks of C188-9 or D5W treatment, protein synthesis (FIG. 21G) and degradation (FIG. 21H) were measured (n=8 pairs of mice; *p<0.05 vs. D5W). Values are means±SEM.\nFIG. 23A. Representative western blots of the indicated proteins from lysates of gastrocnemius muscles of control (Stat3flox/flox) or Stat3 KO sham or CKD mice. FIGS. 23B & 23C. mRNAs of myostatin (FIG. 23B) and C/EBPδ in muscles of sham or CKD mice analyzed by RT-PCR (n=4 mice/group; *p<0.05 vs. Stat3flox/flox sham). FIG. 23D. Representative western blots of the indicated proteins in lysates of gastrocnemius muscles of STZ vs. WT control mice (n=5 pairs). FIG. 23E. Sham or CKD mice were treated with C188-9 or D5W (diluent) for 14 days. Representative western blots of indicated proteins from lysates of gastrocnemius muscles are shown (n=8 mice/group). FIGS. 23F & 23G. mRNA levels of myostatin (FIG. 23F) and C/EBPδ (FIG. 23G) analyzed by RT-PCR and corrected for GAPDH (n=3 mice/group: wild-type mice without CKD; sham mice treated with C188-9 or D5W; mice with CKD treated with C188-9 or D5W; *p<0.05 vs. WT non-CKD). Values are means±SEM. FIG. 6. C/EBPδ and myostatin mediate CKD or Stat3-induced muscle wasting. A. Body weights of wild type or homo- or hetero-C/EBPδ KO mice following creation of CKD. Values are expressed as a percentage of basal body weight (mean±SEM; n=9 for WT mice; n=11 for C/EBPδ−/−; n=11 for C/EBPδ+/− mice; *p<0.05 vs. WT CKD). FIG. 23B. Survival was calculated as the percentage of mice surviving at 3 weeks after CKD or after sham surgery (n=20 for WT; n=25 for C/EBPδ−/−; n=21 for C/EBPδ+/−; *p<0.05 vs. C/EBPδ−/− CKD). FIG. 23C. Average weights from both legs of red fiber (soleus) or white fiber (EDL) muscles (mean±SEM; n=10 mice/group; *p<0.05 vs. WT CKD). FIG. 23D. Representative western blots of p-Stat3 and myostatin from muscles of CKD or sham-operated mice of the following groups: C/EBPδ−/−, C/EBPδ+/− or control (WT). FIG. 23E. Cryosections of gastrocnemius muscles from mice that were transfected with lentivirus expressing Stat3C-GPF or GFP and treated with anti-myostatin inhibitor or PBS. The sections were immunostained with p-Smad2/3 (red, lower panel). […] FIG. 23F. GFP-positive areas in myofibers were measured and the mean myofiber sizes of each group are shown (left panel). The percentage of p-Smad2/3 positive nuclei to total nuclei was calculated (right panel; mean±SEM, *p<0.05 vs. GFP/PBS).\nAll animal experiments and procedures were approved by the Baylor College of Medicine Institutional Animal Care and Use Committee (IACUC). Subtotal nephrectomy was used to create CKD in mice (Zhang et al., 2011; May et al., 1987). To induce diabetes, 12-week-old Stat3^flox/flox and Stat3 KO mice were injected intraperitoneally with 2 doses of 150 mg/kg/d STZ (Sigma-Aldrich) in 0.1 M citrate buffer (pH 4). Control mice were injected with the citrate buffer. […]", "key": {"[1]": {"settings": "CKD mice, 6.25 mg/kg subcutaneously daily for 14 days vs. D5W"}, "[2]": {"settings": "CKD mice, at 2 weeks, EDL muscles"}}, "data": [{"molecule": "COc1ccc(S(=O)(=O)Nc2cc(-c3c(O)ccc4ccccc34)c(O)c3ccccc23)cc1", "note": "[C188-9]", "values": [{"measurement": "body weights", "setting": "[1]", "value": "significantly greater"}, {"measurement": "level of p-Stat3 in muscle", "setting": "[1]", "value": "decreased"}, {"measurement": "Akt phosphorylation in muscle", "setting": "CKD mice, 14 days", "value": "higher"}, {"measurement": "CKD-induced phosphorylation of p-Smad2/3", "setting": "CKD mice, 14 days", "value": "blocked"}, {"measurement": "grip strength", "setting": "CKD mice, 14 days vs. D5W", "value": "improved grip strength"}, {"measurement": "C/EBPδ and myostatin proteins in muscle", "setting": "CKD mice, 14 days, gastrocnemius lysates", "value": "decreased"}, {"measurement": "CKD-stimulated mRNA expressions of C/EBPδ and myostatin", "setting": "CKD mice, RT-PCR", "value": "suppressed"}, {"measurement": "weights of gastrocnemius and tibialis anterior muscles", "setting": "CKD mice, after 14 days vs. D5W", "value": "greater"}, {"measurement": "muscle protein degradation", "setting": "[2]", "value": "decreased protein degradation"}, {"measurement": "muscle protein synthesis", "setting": "[2]", "value": "improved muscle protein synthesis"}, {"measurement": "C/EBPδ or myostatin mRNAs or proteins in muscle", "setting": "control mice without CKD", "value": "did not change"}, {"measurement": "food intake, body weight, muscle mass or grip strength", "setting": "control, wild type mice without CKD", "value": "did not significantly affect"}]}]}
